Assay results taken from article PMC6982702, “Extensive Structure Modification on Luteolin-Cinnamic Acid Conjugates Leading to BACE1 Inhibitors with Optimal Pharmacological Properties” (Molecules, 2019).

Key:
[1] = biological target: T1, BACE1 (Homo sapiens, UniProt P56817); experiment: In vitro BACE1 FRET enzyme assay; assay type: biochemical; conditions: BACE1 FRET assay; for inhibition at 10 µM: 10 μM compound, read-out: Inhibition Rate at 10 μM (%)
T1 construct: purchased PanVera Co. (Invitrogen, USA)
T1 sequence (P56817 46-501): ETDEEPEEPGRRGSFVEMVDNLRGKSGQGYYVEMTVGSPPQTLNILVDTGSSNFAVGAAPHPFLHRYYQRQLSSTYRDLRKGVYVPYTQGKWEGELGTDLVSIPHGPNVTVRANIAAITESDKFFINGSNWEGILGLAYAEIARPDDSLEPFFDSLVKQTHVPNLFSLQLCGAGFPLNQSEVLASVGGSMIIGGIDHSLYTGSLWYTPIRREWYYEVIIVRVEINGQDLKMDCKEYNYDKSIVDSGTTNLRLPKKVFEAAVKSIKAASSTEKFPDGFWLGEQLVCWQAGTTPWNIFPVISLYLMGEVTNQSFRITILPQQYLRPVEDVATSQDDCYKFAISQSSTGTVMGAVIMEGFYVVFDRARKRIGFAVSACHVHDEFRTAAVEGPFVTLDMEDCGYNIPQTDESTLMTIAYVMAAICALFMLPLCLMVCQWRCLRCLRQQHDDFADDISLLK
Protocol: The BACE1 FRET assay kit was purchased from the PanVera Co. (Invitrogen, USA). The assay was carried out according to the supplied manual with modifications. […] The fluorescence intensity was measured with a TECAN infinite 200 microplate reader for 60 min at 25 °C in the dark. […] The percent inhibition (%) was obtained by the following equation: Inhibition % = (1 −SS/SC) × 100%, where SC is the slope of fluorescence change of the control (enzyme, buffer, and substrate) during 60 min, and SS is the slope of fluorescence change of the tested samples (enzyme, sample solution, and substrate) during 60 min of measurement. IC50 values were calculated from the nonlinear curve fitting of percentage inhibition against inhibitor concentration using Prism 3.0 software (GraphPad Software, San Diego, CA, USA).

[2] = MTT cytotoxicity assay; assay type: cell-based; conditions: human, 24 h exposure
Protocol: It is crucial for the BACE1 inhibitors to exert their activities at sub-toxic concentration, and thus their cytotoxicity was assessed in HEK293 cells by 3-[4,5-dimethylthiazol-2-yl]-2,5-diphenyl-tetrazolium bromide (MTT) assays (Table 5). […] Unfortunately, there was no obvious relationship between the structures and their cytotoxicity.
The cytotoxicity was examined by using 3-[4,5-dimethylthiazol-2-yl]-2,5-diphenyl-tetrazolium bromide (MTT) assay. HEK293T cells were seeded with complete DMEM into 96-well plates ([…], 100 µL/well), incubated at 37 °C in a humidified atmosphere with 5% CO2 for 24 h. All the compounds were diluted with the phenol red-free DMEM at a specific concentration. After 24 h of exposure to different concentrations of compound, the supernatant was removed and then 20% (v/v) MTT (5 mg/mL) diluted with fresh culture medium was added into each well and incubated for 4 h. Cells were lysed with 100 μL dimethyl sulfoxide (DMSO) and shaken for 10 min at room temperature. The absorbance in each well was detected at a wavelength of 490 nm using a Universal Microplate Reader (ELX 800 lv, BIO-TEK Instruments, Inc., Winooski, VT, USA).

[3] = HEK293 cells (method text: HEK293T)

SMILES	inhibition at 10 µM [1]	IC50 at 24 h [2, 3]	IC50 [1]	IC50 at 24 h ([2]; HEK293 cells (method text: HEK293T cells))
O=C(/C=C/c1ccc(Cl)cc1)OCCOc1cc(O)c2c(=O)cc(-c3ccc(O)c(O)c3)oc2c1 [Compound 7f, (E)-2-((2-(3,4-dihydroxyphenyl)-5-hydroxy-4-oxo-4H-chromen-7-yl)oxy)ethyl 3-(4-chlorophenyl)acrylate]	21.3 ± 7.1%	9.97 µM	–	–
O=C(OCCOc1cc(O)c2c(=O)cc(-c3ccc(O)c(O)c3)oc2c1)c1ccc(O)cc1 [Compound 7o, 2-((2-(3,4-dihydroxyphenyl)-5-hydroxy-4-oxo-4H-chromen-7-yl)oxy)ethyl 4-hydroxybenzoate]	51.9 ± 1.9%	10.3 µM	–	–
O=C(/C=C/c1ccc(O)cc1)Oc1ccc(-c2cc(=O)c3c(O)cc(O)cc3o2)cc1 [Compound 4f]	29.4 ± 5.5%	–	–	–
CC(=O)Oc1ccc(/C=C/C(=O)Oc2ccc(-c3cc(=O)c4c(O)cc(O)cc4o3)cc2)cc1 [Compound 4e]	1.9 ± 10.3%	–	–	–
O=C(/C=C/c1ccc(O)cc1)OCCOc1cc(O)c2c(=O)cc(-c3ccccc3)oc2c1 [Compound 6]	20.5 ± 4.4%	28.3 µM	–	–
O=C(/C=C/c1ccc(O)cc1)OCCOCCOc1ccc(-c2cc(=O)c3c(O)cc(O)cc3o2)cc1 [Compound 4i]	37 ± 8.6%	–	–	–
O=C(/C=C/c1ccc(O)cc1)Oc1cc(O)c2c(=O)cc(-c3ccc(O)c(O)c3)oc2c1 [Compound 5g]	41.4 ± 4.4%	4.21 µM	–	–
O=C(/C=C/c1ccc(O)cc1)OCCOc1cccc(-c2cc(=O)c3c(O)cc(O)cc3o2)c1 [Compound 4d]	39.6 ± 12.5%	–	–	–
O=C(/C=C/c1ccc(O)cc1)OCCCCOc1cc(O)c2c(=O)cc(-c3ccc(O)c(O)c3)oc2c1 [Compound 5b, (E)-4-((2-(3,4-dihydroxyphenyl)-5-hydroxy-4-oxo-4H-chromen-7-yl)oxy)butyl 3-(4-hydroxyphenyl)acrylate]	68.1 ± 5.8%	–	10.4 ± 1.02 µM	–
CC(C)(C)c1ccc(/C=C/C(=O)OCCOc2cc(O)c3c(=O)cc(-c4ccc(O)c(O)c4)oc3c2)cc1 [Compound 7j, (E)-2-((2-(3,4-dihydroxyphenyl)-5-hydroxy-4-oxo-4H-chromen-7-yl)oxy)ethyl 3-(4-(tert-butyl)phenyl)acrylate]	37.6 ± 4.4%	20.3 µM	–	–
CN(C)c1ccc(/C=C/C(=O)OCCOc2cc(O)c3c(=O)cc(-c4ccc(O)c(O)c4)oc3c2)cc1 [Compound 7h, (E)-2-((2-(3,4-dihydroxyphenyl)-5-hydroxy-4-oxo-4H-chromen-7-yl)oxy)ethyl 3-(4-(dimethylamino)phenyl)acrylate]	53.8 ± 4.4%	> 100 µM	6.58 ± 1.16 µM	–
CC(=O)Oc1ccc(/C=C/C(=O)OCCOc2cc(O)c3c(=O)cc(-c4ccc(O)c(O)c4)oc3c2)cc1 [Compound 7q, (E)-2-((2-(3,4-dihydroxyphenyl)-5-hydroxy-4-oxo-4H-chromen-7-yl)oxy)ethyl 3-(4-acetoxyphenyl)acrylate]	25.7 ± 4.6%	> 100 µM	–	–
O=C(/C=C/c1ccc(O)cc1)OCCOc1c(-c2ccc(O)c(O)c2)oc2cc(O)cc(O)c2c1=O [Compound 4j, 2-((2-(3,4-dihydroxyphenyl)-5,7-dihydroxy-4-oxo-4H-chromen-3-yl)oxy)ethyl(E)-3-(4-hydroxyphenyl)acrylate]	59.2 ± 6.3%	–	6.78 ± 0.83 µM	–
O=C(/C=C/c1ccc(O)cc1)Oc1cccc(-c2cc(=O)c3c(O)cc(O)cc3o2)c1 [Compound 4b]	14.8 ± 7.35%	–	–	–
O=C(/C=C/c1ccc(O)c(O)c1)OCCOc1cc(O)c2c(=O)cc(-c3ccc(O)c(O)c3)oc2c1 [Compound 7d]	–	–	–	16.7 µM
O=C(/C=C/c1ccc(O)cc1)OCCCCCCOc1cc(O)c2c(=O)cc(-c3ccc(O)c(O)c3)oc2c1 [Compound 5d, (E)-6-((2-(3,4-dihydroxyphenyl)-5-hydroxy-4-oxo-4H-chromen-7-yl)oxy)hexyl 3-(4-hydroxyphenyl)acrylate]	42.4 ± 3.2%	–	–	–

SMILES	inhibition at 10 µM [1]	IC50 at 24 h [2, 3]	IC50 [1]	IC50 at 24 h ([2]; HEK293 cells (method text: HEK293T cells))
O=C(/C=C/c1ccoc1)OCCOc1cc(O)c2c(=O)cc(-c3ccc(O)c(O)c3)oc2c1 [Compound 7l, (E)-2-((2-(3,4-dihydroxyphenyl)-5-hydroxy-4-oxo-4H-chromen-7-yl)oxy)ethyl 3-(furan-3-yl)acrylate]	59.5 ± 7.1%	9.51 µM	0.37 ± 0.25 µM	–
O=C(C=Cc1ccccc1)OCCOc1cc(O)c2c(=O)cc(-c3ccc(O)c(O)c3)oc2c1 [Compound 7a, 2-((2-(3,4-dihydroxyphenyl)-5-hydroxy-4-oxo-4H-chromen-7-yl)oxy)ethyl cinnamate]	57.5 ± 7.5%	> 100 µM	2.49 ± 0.32 µM	–
O=C(/C=C/c1ccc(O)cc1)OCCCCCCCCOc1cc(O)c2c(=O)cc(-c3ccc(O)c(O)c3)oc2c1 [Compound 5e, (E)-8-((2-(3,4-dihydroxyphenyl)-5-hydroxy-4-oxo-4H-chromen-7-yl)oxy)octyl 3-(4-hydroxyphenyl)acrylate]	36.1 ± 2.6%	–	–	–
O=C(/C=C/c1ccc(O)cc1)OCCOc1ccc(-c2cc(=O)c3c(O)cc(O)cc3o2)cc1 [Compound 4h]	36 ± 4.2%	–	–	–
O=C(/C=C/c1ccc(O)cc1)OCCOc1ccc2oc(-c3ccc(O)c(O)c3)cc(=O)c2c1 [Compound 4k]	60.6 ± 5.3%	–	12.9 ± 1.14 µM	–
CC(=O)Oc1ccc(/C=C/C(=O)OCCOc2ccc(-c3cc(=O)c4c(O)cc(O)cc4o3)cc2)cc1 [Compound 4g]	17.1 ± 6%	–	–	–
O=C(CCc1ccc(O)cc1)OCCOc1cc(O)c2c(=O)cc(-c3ccc(O)c(O)c3)oc2c1 [Compound 7p, 2-((2-(3,4-dihydroxyphenyl)-5-hydroxy-4-oxo-4H-chromen-7-yl)oxy)ethyl 3-(4-hydroxyphenyl)propanoate]	56.7 ± 4.4%	90 µM	4.39 ± 0.34 µM	–
O=C(/C=C/c1ccc(O)cc1)OCCCCCCCCCCOc1cc(O)c2c(=O)cc(-c3ccc(O)c(O)c3)oc2c1 [Compound 5f, (E)-10-((2-(3,4-dihydroxyphenyl)-5-hydroxy-4-oxo-4H-chromen-7-yl)oxy)decyl 3-(4-hydroxyphenyl)acrylate]	58.2 ± 3.3%	–	27.8 ± 1.34 µM	–
O=C(/C=C/c1ccc([N+](=O)[O-])cc1)OCCOc1cc(O)c2c(=O)cc(-c3ccc(O)c(O)c3)oc2c1 [Compound 7g, (E)-2-((2-(3,4-dihydroxyphenyl)-5-hydroxy-4-oxo-4H-chromen-7-yl)oxy)ethyl 3-(4-nitrophenyl)acrylate]	73.9 ± 7.1%	21.8 µM	0.96 ± 1.55 µM	–
O=C(/C=C/C1CCCCC1)OCCOc1cc(O)c2c(=O)cc(-c3ccc(O)c(O)c3)oc2c1 [Compound 7m, (E)-2-((2-(3,4-dihydroxyphenyl)-5-hydroxy-4-oxo-4H-chromen-7-yl)oxy)ethyl 3-cyclohexylacrylate]	22.2 ± 7.1%	14.4 µM	–	–
O=C(/C=C/c1ccc(O)cc1)OCCCOc1cc(O)c2c(=O)cc(-c3ccc(O)c(O)c3)oc2c1 [Compound 5a, (E)-3-((2-(3,4-dihydroxyphenyl)-5-hydroxy-4-oxo-4H-chromen-7-yl)oxy)propyl 3-(4-hydroxyphenyl)acrylate]	81.4 ± 3.8%	–	5.26 ± 0.72 µM	–
CC(=O)Oc1ccc(/C=C/C(=O)OCCOc2cccc(-c3cc(=O)c4c(O)cc(O)cc4o3)c2)cc1 [Compound 4c]	31.8 ± 5.25%	–	–	–
O=C(/C=C/c1ccc(F)cc1)OCCOc1cc(O)c2c(=O)cc(-c3ccc(O)c(O)c3)oc2c1 [Compound 7e, (E)-2-((2-(3,4-dihydroxyphenyl)-5-hydroxy-4-oxo-4H-chromen-7-yl)oxy)ethyl 3-(4-fluorophenyl)acrylate]	28.5 ± 7.1%	16.8 µM	–	–
O=C(/C=C/c1ccc(O)cc1)OCCCCCOc1cc(O)c2c(=O)cc(-c3ccc(O)c(O)c3)oc2c1 [Compound 5c, (E)-5-((2-(3,4-dihydroxyphenyl)-5-hydroxy-4-oxo-4H-chromen-7-yl)oxy)pentyl 3-(4-hydroxyphenyl)acrylate]	62.6 ± 6.4%	–	20.6 ± 1.44 µM	–
CC(=O)Oc1ccc(/C=C/C(=O)Oc2cccc(-c3cc(=O)c4c(O)cc(O)cc4o3)c2)cc1 [Compound 4a]	23.9 ± 2.95%	–	–	–
